Results on 26 compounds are retold here after ChEMBL document CHEMBL1811880, “Studies on quinones. Part 47. Synthesis of novel phenylaminophenanthridinequinones as potential antitumor agents” (Eur J Med Chem, 2011).

One test concerns AGS. As to the kind of experiment: Anticancer activity against human AGS cells after 3 days by MTT assay. It counts as functional, cell-based. The conditions noted are these: 72 h.
A further test has as its system J82. In words: Anticancer activity against human J82 cells after 3 days by MTT assay. It counts as functional, cell-based. The conditions noted are these: J82, 72 h.
The subject of the next test is SK-MES-1. In words: Anticancer activity against human SKMES1 cells after 3 days by MTT assay. Format: functional, cell-based. The settings on record: SK-MES-1, 72 h.
Test [1] deals with MRC5. As to the kind of experiment: Anticancer activity against human MRC5 cells after 3 days by MTT assay. The settings on record: MRC5, 72 h. Format: ADME, cell-based.
Test [2] concerns MRC5. As to the kind of experiment: Selectivity index, ratio IC50 for human MRC5 cells to IC50 for human AGS cells. It counts as functional.
For test [3], the system named is MRC5. As to the kind of experiment: Selectivity index, ratio IC50 for human MRC5 cells to IC50 for human SKMES1 cells. Format: functional.
The test system of test [4] is MRC5. As to the kind of experiment: Selectivity index, ratio IC50 for human MRC5 cells to IC50 for human J82 cells. It counts as functional.

As to `COc1ccc(OC)c(NC2=CC(=O)c3c(c(C)nc4c3C(=O)CCC4)C2=O)c1`, the 50% inhibitory concentration (IC50) in the test with AGS stood at 1.4 µM; in the test on J82 it was 7.1 µM; in the test with SK-MES-1, 21.7 µM; in the test with MRC5 [1] it was 5 µM.

For `O=C1CCCc2nc(-c3ccccc3)c3c(c21)C(=O)C=CC3=O`, the half-maximal inhibitory concentration (IC50) in the test on AGS was 13.9 µM; in the test with J82, 57.6 µM; in the test on SK-MES-1, 73 µM; in the test on MRC5 [1] it was 31.2 µM.

Regarding `O=C1CCCc2nc(-c3ccco3)c3c(c21)C(=O)C=CC3=O`, the IC50 with AGS amounted to 68 µM; in the test with J82 it was 80.4 µM; with SK-MES-1 it was 96.9 µM; with MRC5 [1], 59 µM.

Regarding `O=C1CCCc2nc(-c3ccsc3)c3c(c21)C(=O)C=CC3=O`, the half-inhibitory concentration (IC50) in the test with AGS was 37.1 µM; with J82 it was > 100 µM; in the test on SK-MES-1 it was 76.7 µM; in the test with MRC5 [1], 71 µM.

With `O=C1C(Nc2ccccc2)=CC(=O)c2c1cnc1c2C(=O)CCC1`, the 50% inhibitory concentration (IC50) in the test with AGS was determined as 0.23 µM; in the test on J82, 2.1 µM; in the test with SK-MES-1, 1.3 µM; with MRC5 [1], 1.4 µM. In addition, the “Ratio IC50” value in the test on MRC5 [2] and in the test with MRC5 [3] was 6 throughout.

Regarding `COc1ccc(NC2=CC(=O)c3c(cnc4c3C(=O)CCC4)C2=O)cc1`, the IC50 was determined as 0.47 µM in the test on AGS, 2.8 µM with J82, 2 µM with SK-MES-1 and 2.6 µM in the test with MRC5 [1].

`COc1ccc(OC)c(NC2=CC(=O)c3c(cnc4c3C(=O)CCC4)C2=O)c1`: the concentration for half-maximal inhibition (IC50) came out at 0.32 µM in the test on AGS, 2.5 µM with J82, 1.8 µM with SK-MES-1 and 2.6 µM in the test with MRC5 [1]. For the same compound, the “Ratio IC50” value in the test with MRC5 [2] and with MRC5 [3] was 6 each time.

As to `CN(C1=CC(=O)c2c(cnc3c2C(=O)CCC3)C1=O)c1ccccc1`, the IC50 with AGS worked out at 4.7 µM; with J82, 12.9 µM; with SK-MES-1 it was 10.6 µM; with MRC5 [1], 7.5 µM.

With `CCN(C1=CC(=O)c2c(cnc3c2C(=O)CCC3)C1=O)c1ccccc1`, the IC50 came to 4.4 µM in the test with AGS, 15.2 µM in the test with J82, 11.7 µM in the test with SK-MES-1 and 8.6 µM with MRC5 [1].

For `O=C1C=C(Nc2ccccc2)C(=O)c2c1cnc1c2C(=O)CCC1`, the half-maximal inhibitory concentration (IC50) came to 3.9 µM with AGS, 8.1 µM in the test on J82, 7.5 µM in the test with SK-MES-1 and 5.9 µM in the test on MRC5 [1].

On to `COc1ccc(NC2=CC(=O)c3cnc4c(c3C2=O)C(=O)CCC4)cc1`, for which the IC50 in the test with AGS stood at 2.2 µM; with J82, 4 µM; in the test on SK-MES-1, 3.7 µM; in the test on MRC5 [1], 4.8 µM.

As for `COc1ccc(OC)c(NC2=CC(=O)c3cnc4c(c3C2=O)C(=O)CCC4)c1`, the IC50 turned out to be 32.9 µM in the test with AGS, 56.7 µM with J82, 21.3 µM in the test on SK-MES-1 and 46.4 µM in the test on MRC5 [1].

Take `CN(C1=CC(=O)c2cnc3c(c2C1=O)C(=O)CCC3)c1ccccc1`: the concentration for half-maximal inhibition (IC50) with AGS stood at 8.3 µM; with J82, 8.4 µM; in the test on SK-MES-1, 8.7 µM; in the test with MRC5 [1], 7.3 µM.

As for `CCN(C1=CC(=O)c2cnc3c(c2C1=O)C(=O)CCC3)c1ccccc1`, the half-inhibitory concentration (IC50) was 17.1 µM in the test with AGS, 19.5 µM with J82, 17.7 µM with SK-MES-1 and 19.6 µM with MRC5 [1].

`Cc1nc2c(c3c1C(=O)C(Nc1ccccc1)=CC3=O)C(=O)CCC2`: the IC50 came out at 0.65 µM with AGS, 4.2 µM in the test with J82, 5.7 µM in the test on SK-MES-1 and 2 µM in the test on MRC5 [1].

In the case of `COc1ccc(NC2=CC(=O)c3c(c(C)nc4c3C(=O)CCC4)C2=O)cc1`, the concentration for half-maximal inhibition (IC50) in the test on AGS worked out at 1.2 µM; in the test on J82, 3 µM; in the test on SK-MES-1, 4.1 µM; in the test on MRC5 [1] it was 5.2 µM.

With `Cc1nc2c(c3c1C(=O)C(Nc1ccc(O)cc1)=CC3=O)C(=O)CCC2`, the IC50 in the test on AGS turned out to be 1.2 µM; in the test on J82 it was 1.9 µM; in the test on SK-MES-1 it was 3.2 µM; in the test with MRC5 [1] it was 2.6 µM.

Regarding `COc1ccccc1NC1=CC(=O)c2c(c(C)nc3c2C(=O)CCC3)C1=O`, the IC50 in the test on AGS turned out to be 0.22 µM; in the test with J82 it was 3.7 µM; in the test on SK-MES-1, 4.3 µM; in the test on MRC5 [1] it was 1.6 µM.

Consider `Cc1nc2c(c3c1C(=O)C(Nc1ccc(F)cc1)=CC3=O)C(=O)CCC2`, for which the IC50 was 0.79 µM in the test on AGS, 3.8 µM in the test with J82, 3.3 µM in the test on SK-MES-1 and 3 µM with MRC5 [1].

For the compound `O=C1CCCc2nc(-c3ccccc3)c3c(c21)C(=O)C=C(Nc1ccccc1)C3=O`, the IC50 worked out at 0.33 µM in the test on AGS, 2.9 µM in the test with J82, 2.8 µM in the test on SK-MES-1 and 2.7 µM in the test with MRC5 [1]. For the same compound, the “Ratio IC50” value with MRC5 [2] and in the test with MRC5 [3] was 6 throughout.

With `O=C1CCCc2nc(-c3ccco3)c3c(c21)C(=O)C=C(Nc1ccccc1)C3=O`, the IC50 with AGS came out at 0.58 µM; with J82, 2.4 µM; in the test on SK-MES-1, 3.1 µM; in the test on MRC5 [1] it was 2.7 µM.

Consider `O=C1CCCc2nc(-c3ccsc3)c3c(c21)C(=O)C=C(Nc1ccccc1)C3=O`, for which the IC50 in the test with AGS was determined as 0.35 µM; with J82 it was 2.5 µM; in the test with SK-MES-1, 2.9 µM; in the test on MRC5 [1], 2.8 µM. Moreover, the “Ratio IC50” value in the test with MRC5 [2] and in the test with MRC5 [3] was 6 in each case.

For `COc1ccc(OC)c(NC2=CC(=O)c3c(cnc4cccc(O)c34)C2=O)c1`, the IC50 with AGS came to 0.18 µM; with J82, 1.4 µM; with SK-MES-1, 0.63 µM; in the test on MRC5 [1], 0.53 µM.

With `COc1ccc(OC)c(NC2=CC(=O)c3cnc4cccc(O)c4c3C2=O)c1`, the IC50 in the test on AGS is 19.8 µM; in the test on J82 it was 0.61 µM; in the test on SK-MES-1, 13.5 µM; in the test on MRC5 [1] it was 17.2 µM. In addition, the “Ratio IC50” value in the test with MRC5 [4] is reported as 28.

In the test on J82, `O=C1C=CC(=O)c2c1cnc1c2C(=O)CCC1` showed an IC50 of 15.8 µM.

Take `COc1cc([C@@H]2c3cc4c(cc3[C@@H](O[C@@H]3O[C@@H]5CO[C@@H](C)O[C@H]5[C@H](O)[C@H]3O)[C@H]3COC(=O)[C@H]23)OCO4)cc(OC)c1O` [ETOPOSIDE]: the IC50 in the test on J82 turned out to be 0.8 µM.
